# PubChem BioAssay (NCI)
#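 Protocol summary: plate cells (96-well), add compound at 5 concentrations, incubate 48 h, interpolate endpoints linearly. The concentration for full growth arrest is given as TGI.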
# What was measured:
# Experiment in all cases: NCI-60 cell line screen, 48 h
# 786-0 renal = system: 786-0 renal
# A498 renal = system: A498 renal
# A549 NSCLC = system: A549 NSCLC
# ACHN renal = system: ACHN renal
# BT-549 breast = system: BT-549 breast
# CAKI-1 renal = system: CAKI-1 renal
# CCRF-CEM leukemia = system: CCRF-CEM leukemia
# COLO 205 colon = system: COLO 205 colon
# DU-145 prostate = system: DU-145 prostate
# EKVX NSCLC = system: EKVX NSCLC
# HCC-2998 colon = system: HCC-2998 colon
# HCT-116 colon = system: HCT-116 colon
# HCT-15 colon = system: HCT-15 colon
# HL-60(TB) leukemia = system: HL-60(TB) leukemia
# HOP-62 NSCLC = system: HOP-62 NSCLC
# HOP-92 NSCLC = system: HOP-92 NSCLC
# HS 578T breast = system: HS 578T breast
# HT29 colon = system: HT29 colon
# IGROV1 ovarian = system: IGROV1 ovarian
# K-562 leukemia = system: K-562 leukemia
# KM12 colon = system: KM12 colon
# LOX IMVI melanoma = system: LOX IMVI melanoma
# MALME-3M melanoma = system: MALME-3M melanoma
# MDA-MB-231 breast = system: MDA-MB-231 breast
# MDA-MB-435 = system: MDA-MB-435
# MDA-N = system: MDA-N
# MOLT-4 leukemia = system: MOLT-4 leukemia
# NCI-H226 lung = system: NCI-H226 lung
# NCI-H23 lung = system: NCI-H23 lung
# NCI-H460 lung = system: NCI-H460 lung
# NCI-H522 lung = system: NCI-H522 lung
# NCI/ADR-RES ovarian = system: NCI/ADR-RES ovarian
# OVCAR-3 ovarian = system: OVCAR-3 ovarian
# OVCAR-4 ovarian = system: OVCAR-4 ovarian
# OVCAR-5 ovarian = system: OVCAR-5 ovarian
# OVCAR-8 ovarian = system: OVCAR-8 ovarian
# PC-3 prostate = system: PC-3 prostate
# RPMI-8226 leukemia = system: RPMI-8226 leukemia
# RXF 393 renal = system: RXF 393 renal
# SF-268 CNS = system: SF-268 CNS
# SF-295 CNS = system: SF-295 CNS
# SF-539 CNS = system: SF-539 CNS
# SK-MEL-2 melanoma = system: SK-MEL-2 melanoma
# SK-MEL-28 melanoma = system: SK-MEL-28 melanoma
# SK-MEL-5 melanoma = system: SK-MEL-5 melanoma
# SK-OV-3 ovarian = system: SK-OV-3 ovarian
# SN12C renal = system: SN12C renal
# SNB-19 CNS = system: SNB-19 CNS
# SNB-75 CNS = system: SNB-75 CNS
# SR leukemia = system: SR leukemia
# SW-620 colon = system: SW-620 colon
# T-47D breast = system: T-47D breast
# TK-10 renal = system: TK-10 renal
# U251 CNS = system: U251 CNS
# UACC-257 melanoma = system: UACC-257 melanoma
# UACC-62 melanoma = system: UACC-62 melanoma
# UO-31 renal = system: UO-31 renal
# M14 melanoma = system: M14 melanoma
# MCF7 breast = system: MCF7 breast
structure (smiles),measurement,setting,value
Nc1nc(N)c(N=O)c(Nc2ccc(O)cc2)n1,TGI,786-0 renal,> 95.5 µM
same,TGI,A498 renal,> 85.1 µM
same,TGI,A549 NSCLC,> 100 µM
same,TGI,ACHN renal,> 86.1 µM
same,TGI,BT-549 breast,> 82.9 µM
same,TGI,CAKI-1 renal,> 76.3 µM
same,TGI,CCRF-CEM leukemia,> 100 µM
same,TGI,COLO 205 colon,> 100 µM
same,TGI,DU-145 prostate,> 100 µM
same,TGI,EKVX NSCLC,> 100 µM
same,TGI,HCC-2998 colon,> 100 µM
same,TGI,HCT-116 colon,> 100 µM
same,TGI,HCT-15 colon,> 100 µM
same,TGI,HL-60(TB) leukemia,> 71.3 µM
same,TGI,HOP-62 NSCLC,> 57.2 µM
same,TGI,HOP-92 NSCLC,> 100 µM
same,TGI,HS 578T breast,58.8 µM
same,TGI,HT29 colon,> 100 µM
same,TGI,IGROV1 ovarian,44.8 µM
same,TGI,K-562 leukemia,> 92.1 µM
same,TGI,KM12 colon,> 100 µM
same,TGI,LOX IMVI melanoma,> 100 µM
same,TGI,MALME-3M melanoma,> 100 µM
same,TGI,MDA-MB-231 breast,> 100 µM
same,TGI,MDA-MB-435,> 100 µM
same,TGI,MDA-N,> 100 µM
same,TGI,MOLT-4 leukemia,> 60.9 µM
same,TGI,NCI-H226 lung,96 µM
same,TGI,NCI-H23 lung,> 100 µM
same,TGI,NCI-H460 lung,> 100 µM
same,TGI,NCI-H522 lung,> 56.6 µM
same,TGI,NCI/ADR-RES ovarian,> 50.4 µM
same,TGI,OVCAR-3 ovarian,> 100 µM
same,TGI,OVCAR-4 ovarian,> 100 µM
same,TGI,OVCAR-5 ovarian,> 26.1 µM
same,TGI,OVCAR-8 ovarian,> 100 µM
same,TGI,PC-3 prostate,> 100 µM
same,TGI,RPMI-8226 leukemia,> 68.2 µM
same,TGI,RXF 393 renal,> 100 µM
same,TGI,SF-268 CNS,> 83.8 µM
same,TGI,SF-295 CNS,> 65.1 µM
same,TGI,SF-539 CNS,16.3 µM
same,TGI,SK-MEL-2 melanoma,> 100 µM
same,TGI,SK-MEL-28 melanoma,> 100 µM
same,TGI,SK-MEL-5 melanoma,> 100 µM
same,TGI,SK-OV-3 ovarian,45.1 µM
same,TGI,SN12C renal,> 100 µM
same,TGI,SNB-19 CNS,> 100 µM
same,TGI,SNB-75 CNS,> 67.7 µM
same,TGI,SR leukemia,97.7 µM
same,TGI,SW-620 colon,> 100 µM
same,TGI,T-47D breast,> 96.1 µM
same,TGI,TK-10 renal,> 100 µM
same,TGI,U251 CNS,> 100 µM
same,TGI,UACC-257 melanoma,> 100 µM
same,TGI,UACC-62 melanoma,> 100 µM
same,TGI,UO-31 renal,> 86.7 µM
CC(C)/C(Cl)=N\OC(=O)Nc1cccc(F)c1,TGI,786-0 renal,29.6 µM
same,TGI,A498 renal,17.9 µM
same,TGI,A549 NSCLC,34.9 µM
same,TGI,ACHN renal,27.8 µM
same,TGI,BT-549 breast,19.5 µM
same,TGI,CAKI-1 renal,32.5 µM
same,TGI,CCRF-CEM leukemia,5.07 µM
same,TGI,COLO 205 colon,5.87 µM
same,TGI,DU-145 prostate,32.5 µM
same,TGI,EKVX NSCLC,31.8 µM
same,TGI,HCC-2998 colon,36.9 µM
same,TGI,HCT-116 colon,30.6 µM
same,TGI,HCT-15 colon,30.6 µM
same,TGI,HL-60(TB) leukemia,4.05 µM
same,TGI,HOP-62 NSCLC,> 31.6 µM
same,TGI,HOP-92 NSCLC,4.69 µM
same,TGI,HS 578T breast,63.2 µM
same,TGI,HT29 colon,43.6 µM
same,TGI,IGROV1 ovarian,36.2 µM
same,TGI,K-562 leukemia,4.8 µM
same,TGI,KM12 colon,16.7 µM
same,TGI,LOX IMVI melanoma,5.31 µM
same,TGI,M14 melanoma,10.8 µM
same,TGI,MALME-3M melanoma,14.4 µM
same,TGI,MCF7 breast,32.8 µM
same,TGI,MDA-MB-231 breast,31.4 µM
same,TGI,MDA-N,29.5 µM
same,TGI,MOLT-4 leukemia,6.29 µM
same,TGI,NCI-H226 lung,33.5 µM
same,TGI,NCI-H23 lung,34.2 µM
same,TGI,NCI-H460 lung,> 66.8 µM
same,TGI,NCI-H522 lung,2.98 µM
same,TGI,NCI/ADR-RES ovarian,37 µM
same,TGI,OVCAR-3 ovarian,32.4 µM
same,TGI,OVCAR-4 ovarian,25.4 µM
same,TGI,OVCAR-5 ovarian,35.1 µM
same,TGI,OVCAR-8 ovarian,31.1 µM
same,TGI,PC-3 prostate,30.2 µM
same,TGI,RPMI-8226 leukemia,15.3 µM
same,TGI,RXF 393 renal,31 µM
same,TGI,SF-268 CNS,58 µM
same,TGI,SF-295 CNS,> 53.9 µM
same,TGI,SF-539 CNS,35.4 µM
same,TGI,SK-MEL-2 melanoma,18.9 µM
same,TGI,SK-MEL-28 melanoma,31.9 µM
same,TGI,SK-MEL-5 melanoma,28.4 µM
same,TGI,SK-OV-3 ovarian,35.2 µM
same,TGI,SN12C renal,32.2 µM
same,TGI,SNB-19 CNS,> 100 µM
same,TGI,SNB-75 CNS,55.6 µM
same,TGI,SR leukemia,6.6 µM
same,TGI,SW-620 colon,5.5 µM
same,TGI,T-47D breast,61.6 µM
same,TGI,TK-10 renal,28.1 µM
same,TGI,U251 CNS,33.4 µM
same,TGI,UACC-257 melanoma,30 µM
same,TGI,UACC-62 melanoma,45.3 µM
same,TGI,UO-31 renal,32.6 µM
